Laboratory results as given in PubChem BioAssay AID204 (DTP/NCI, 2004).
“And” between values parts separate entries of the source, which are not always exact repeats. Equal values may be shown once. Inconclusive results and toxic doses are left out.

System: BDF1 mice, P288 methotrexate-resistant leukemia, survival T/C
Experiment: NCI In Vivo Anticancer Drug Screen. Data for tumor model P288 Lymphocytic Leukemia resistant to methotrexate; NSC 740 (intraperitoneal) in B6D2F1 (BDF1) mice
Conditions: endpoint: median survival time, higher = longer survival
Description: The antitumor activity of compounds was measured in mice bearing transplantable tumors. Survival or tumor size were measured and the results are expressed as the measurement made in the treated group (T) divided by the measurement made in the vehicle treated control group (C). The tumor model used in this assay is P288 Lymphocytic Leukemia resistant to methotrexate; NSC 740 (intraperitoneal) in B6D2F1 (BDF1) mice

[1] = dose: 125.0 mg/kg/injection, schedule: Q01DX010 (ip), vehicle: saline
[2] = dose: 250.0 mg/kg/injection, schedule: Q01DX010 (ip), vehicle: saline
[3] = dose: 500.0 mg/kg/injection, schedule: Q01DX010 (ip), vehicle: saline
[4] = dose: 10.0 mg/kg/injection, schedule: Q01DX010 (ip), vehicle: saline
[5] = dose: 20.0 mg/kg/injection, schedule: Q01DX010 (ip), vehicle: saline
[6] = dose: 40.0 mg/kg/injection, schedule: Q01DX010 (ip), vehicle: saline
[7] = dose: 60.0 mg/kg/injection, schedule: Q01DX010 (ip), vehicle: saline
[8] = dose: 120.0 mg/kg/injection, schedule: Q01DX010 (ip), vehicle: saline
[9] = dose: 25.0 mg/kg/injection, schedule: Q01DX010 (ip), vehicle: saline
[10] = dose: 50.0 mg/kg/injection, schedule: Q01DX010 (ip), vehicle: saline
[11] = dose: 100.0 mg/kg/injection, schedule: Q01DX010 (ip), vehicle: saline
[12] = dose: 125.0 micrograms/kg/injection, schedule: Q01DX010 (ip), vehicle: saline
[13] = dose: 250.0 micrograms/kg/injection, schedule: Q01DX010 (ip), vehicle: saline
[14] = dose: 5.0 mg/kg/injection, schedule: Q01DX010 (ip), vehicle: saline
[15] = dose: 62.5 mg/kg/injection, schedule: Q01DX010 (ip), vehicle: saline
[16] = dose: 6.25 mg/kg/injection, schedule: Q01DX010 (ip), vehicle: saline
[17] = dose: 12.5 mg/kg/injection, schedule: Q01DX010 (ip), vehicle: saline
[18] = dose: 0.25 mg/kg/injection, schedule: Q01DX010 (ip), vehicle: saline
[19] = dose: 0.5 mg/kg/injection, schedule: Q01DX010 (ip), vehicle: saline
[20] = dose: 1.0 mg/kg/injection, schedule: Q01DX010 (ip), vehicle: saline
[21] = dose: 2.0 mg/kg/injection, schedule: Q01DX010 (ip), vehicle: saline
[22] = dose: 3.13 mg/kg/injection, schedule: Q01DX010 (ip), vehicle: saline
[23] = dose: 2.5 mg/kg/injection, schedule: Q01DX010 (ip), vehicle: saline
[24] = dose: 4.0 mg/kg/injection, schedule: Q01DX010 (ip), vehicle: saline
[25] = dose: 16.0 mg/kg/injection, schedule: Q01DX010 (ip), vehicle: saline
[26] = dose: 12.0 mg/kg/injection, schedule: Q01DX010 (ip), vehicle: saline
[27] = dose: 8.0 mg/kg/injection, schedule: Q01DX010 (ip), vehicle: saline

CCOC(N)=O
T/C [1]: 100 % of control
T/C [2]: 100 % of control
T/C [3]: 100 % of control
T/C (dose: 1000.0 mg/kg/injection, schedule: Q01DX010 (ip), vehicle: saline): 87 % of control and 88 % of control

CC1CCOS(=O)O1 (configuration not stated)
T/C [4]: 91 % of control and 95 % of control
T/C [5]: 90 % of control
T/C [6]: 95 % of control
T/C (dose: 80.0 mg/kg/injection, schedule: Q01DX010 (ip), vehicle: saline): 90 % of control

O=C(Nc1ccc(NC(=O)Nc2cccc(C3=NCCN3)c2)cc1)Nc1cccc(C2=NCCN2)c1
T/C [7]: 200 % of control and 225 % of control
T/C [8]: 250 % of control and 322 % of control
T/C (dose: 240.0 mg/kg/injection, schedule: Q01DX010 (ip), vehicle: saline): 183 % of control and 235 % of control
T/C (dose: 480.0 mg/kg/injection, schedule: Q01DX010 (ip), vehicle: saline): 100 % of control and 120 % of control

COc1cc(-c2ccc(Nc3ccccc3C(=O)O)c(OC)c2)ccc1Nc1ccccc1C(=O)O
T/C [9]: 154 % of control
T/C [10]: 163 % of control
T/C [11]: 172 % of control

N#C[C@@H]1C2C=CC(CC2)[C@H]1C#N
T/C (dose: 31.0 micrograms/kg/injection, schedule: Q01DX010 (ip), vehicle: saline): 90 % of control
T/C (dose: 63.0 micrograms/kg/injection, schedule: Q01DX010 (ip), vehicle: saline): 118 % of control
T/C [12]: 109 % of control
T/C [13]: 90 % of control

O=c1[nH]cc(F)c(=O)[nH]1
T/C [14]: 108 % of control
T/C [5]: 159 % of control
T/C [6]: 91 % of control and 95 % of control

c1ccc(CCSc2ncnc3nc[nH]c23)cc1
T/C (dose: 15.6 mg/kg/injection, schedule: Q01DX010 (ip), vehicle: saline): 86 % of control
T/C (dose: 31.3 mg/kg/injection, schedule: Q01DX010 (ip), vehicle: saline): 86 % of control
T/C [15]: 100 % of control
T/C [3]: 87 % of control

CN(C)c1ccc(/C=C/c2ccnc3ccccc23)cc1
T/C [14]: 104 % of control
T/C [4]: 90 % of control and 100 % of control
T/C [5]: 90 % of control and 100 % of control
T/C [6]: 90 % of control and 91 % of control

CN(N=O)C(N)=O
T/C [4]: 110 % of control
T/C [5]: 150 % of control
T/C [6]: 95 % of control

CS(=O)(=O)OCCCCOS(C)(=O)=O
T/C [16]: 87 % of control
T/C [17]: 106 % of control
T/C [9]: 93 % of control
T/C [10]: 87 % of control

Nc1ncnc2c1ccn2C1OC(CO)C(O)C1O (configuration not stated)
T/C [18]: 100 % of control
T/C [19]: 100 % of control
T/C [20]: 118 % of control
T/C [21]: 100 % of control

CO[C@H](C(=O)[C@@H](O)[C@@H](C)O)[C@@H]1Cc2cc3cc(OC4CC(OC5CC(O)C(O)C(C)O5)C(O)C(C)O4)c(C)c(O)c3c(O)c2C(=O)[C@H]1OC1CC(OC2CC(OC3CC(C)(O)C(O)C(C)O3)C(O)C(C)O2)C(O)C(C)O1 (some centres not stated)
T/C [18]: 95 % of control
T/C [19]: 95 % of control
T/C [20]: 104 % of control

[I][Hg][CH2]C1COC([CH2][Hg][I])CO1 (configuration not stated)
T/C (dose: 1.56 mg/kg/injection, schedule: Q01DX010 (ip), vehicle: saline): 86 % of control
T/C [22]: 95 % of control
T/C [16]: 100 % of control
T/C [17]: 100 % of control
T/C [9]: 87 % of control

N=[N+]=CC(=O)OCC(N)C(=O)O (configuration not stated)
T/C [22]: 110 % of control
T/C [16]: 112 % of control and 120 % of control
T/C [17]: 108 % of control and 120 % of control
T/C [9]: 120 % of control

C[C@]12C=CC(=O)C=C1CC[C@@H]1[C@@H]2[C@@H](O)C[C@@]2(C)[C@H]1CC[C@]2(O)C(=O)CO
T/C (dose: 25.0 mg/kg/injection, schedule: Q01DX010 (sc), vehicle: steriod suspending solution): 118 % of control
T/C (dose: 50.0 mg/kg/injection, schedule: Q01DX010 (sc), vehicle: steriod suspending solution): 109 % of control
T/C (dose: 100.0 mg/kg/injection, schedule: Q01DX010 (sc), vehicle: steriod suspending solution): 100 % of control
T/C (dose: 200.0 mg/kg/injection, schedule: Q01DX010 (sc), vehicle: steriod suspending solution): 100 % of control

Cn1cnc([N+](=O)[O-])c1Sc1nc(N)nc2nc[nH]c12
T/C [23]: 109 % of control
T/C [14]: 90 % of control
T/C [4]: 109 % of control
T/C [5]: 109 % of control

COS(C)(=O)=O
T/C [10]: 90 % of control

C=CC(CN1CC1)OC(C)=O (configuration not stated)
T/C [21]: 90 % of control and 95 % of control
T/C [24]: 100 % of control and 118 % of control
T/C [25]: 95 % of control and 100 % of control

C[N+](C)(C)c1ncnc2nc[nH]c12
T/C (dose: 15.0 mg/kg/injection, schedule: Q01DX010 (ip), vehicle: saline): 90 % of control
T/C (dose: 30.0 mg/kg/injection, schedule: Q01DX010 (ip), vehicle: saline): 100 % of control
T/C [7]: 90 % of control and 100 % of control
T/C [8]: 105 % of control and 113 % of control

Nc1nc(=S)c2[nH]cnc2[nH]1
T/C (dose: 1.25 mg/kg/injection, schedule: Q01DX010 (ip), vehicle: other): 88 % of control and 118 % of control
T/C (dose: 2.5 mg/kg/injection, schedule: Q01DX010 (ip), vehicle: other): 111 % of control and 112 % of control
T/C (dose: 5.0 mg/kg/injection, schedule: Q01DX010 (ip), vehicle: other): 111 % of control

CN(C)c1ccc(/C=C\c2ccnc3ccccc23)cc1
T/C (dose: 1.5 mg/kg/injection, schedule: Q01DX010 (ip), vehicle: saline): 100 % of control
T/C (dose: 3.0 mg/kg/injection, schedule: Q01DX010 (ip), vehicle: saline): 100 % of control
T/C (dose: 6.0 mg/kg/injection, schedule: Q01DX010 (ip), vehicle: saline): 100 % of control
T/C [26]: 105 % of control

OCC1OC(n2cnc3c(Cl)ncnc32)C(O)C1O (configuration not stated)
T/C [15]: 95 % of control and 100 % of control
T/C [1]: 90 % of control and 100 % of control
T/C [2]: 90 % of control and 105 % of control
T/C [3]: 90 % of control

O=C(O)CCCc1ccc(N(CCCl)CCCl)cc1
T/C [22]: 90 % of control and 95 % of control
T/C [16]: 91 % of control and 100 % of control
T/C [17]: 115 % of control

O=C(Nc1ccc(C2=NCCN2)cc1)c1cccc(C(=O)Nc2ccc(C3=NCCN3)cc2)c1
T/C [27]: 155 % of control and 166 % of control
T/C [25]: 185 % of control and 194 % of control
T/C (dose: 32.0 mg/kg/injection, schedule: Q01DX010 (ip), vehicle: saline): 200 % of control and 238 % of control
T/C (dose: 64.0 mg/kg/injection, schedule: Q01DX010 (ip), vehicle: saline): 250 % of control and 255 % of control

CCN(CC)c1ccc2cc3ccc(=[N+](CC)CC)cc-3oc2c1
T/C [20]: 90 % of control
T/C [21]: 104 % of control
T/C [24]: 100 % of control
T/C [27]: 90 % of control

CSc1ncnc2nc[nH]c12
T/C [22]: 91 % of control and 100 % of control
T/C [16]: 91 % of control and 96 % of control
T/C [10]: 90 % of control

CCOC(=O)c1[nH]c2ccccc2c1CN(CCCl)CCCl
T/C [4]: 96 % of control
T/C [5]: 111 % of control

C1CN1c1nc(N2CC2)nc(N2CC2)n1
T/C (dose: 0.13 mg/kg/injection, schedule: Q01DX010 (ip), vehicle: saline): 90 % of control and 91 % of control
T/C [18]: 108 % of control and 110 % of control
T/C [20]: 90 % of control

CSCS(=O)C[C@H](CO)NC(=O)/C=C/c1c(C)[nH]c(=O)[nH]c1=O (some centres not stated)
T/C (dose: 62.5 micrograms/kg/injection, schedule: Q01DX010 (ip), vehicle: saline): 109 % of control
T/C [12]: 100 % of control
T/C [13]: 100 % of control
T/C (dose: 500.0 micrograms/kg/injection, schedule: Q01DX010 (ip), vehicle: saline): 90 % of control

N#[N+]c1cnc([O-])[nH]c1=O
T/C (dose: 1.25 mg/kg/injection, schedule: Q01DX010 (ip), vehicle: saline): 100 % of control
T/C [23]: 116 % of control and 118 % of control

O=c1cnn(C2OC(CO)C(O)C2O)c(=O)[nH]1 (configuration not stated)
T/C (dose: 200.0 mg/kg/injection, schedule: Q01DX010 (ip), vehicle: saline): 100 % of control
T/C (dose: 400.0 mg/kg/injection, schedule: Q01DX010 (ip), vehicle: saline): 100 % of control
T/C (dose: 800.0 mg/kg/injection, schedule: Q01DX010 (ip), vehicle: saline): 91 % of control

CN(N=O)C(=O)NC(C=O)C(O)C(O)C(O)CO (configuration not stated)
T/C [17]: 100 % of control
T/C [9]: 115 % of control
T/C [11]: 105 % of control

CS(=O)(=O)OCCN(CCOS(C)(=O)=O)c1ccc(N=O)cc1
T/C [19]: 120 % of control

CC(=O)N(C)C
T/C [15]: 95 % of control and 120 % of control
T/C [1]: 90 % of control and 95 % of control
T/C [2]: 105 % of control and 110 % of control
T/C [3]: 110 % of control

N=C(N)c1ccc(Nc2ccc(C(=N)N)cc2)cc1
T/C [26]: 90 % of control
